According to PubChem BioAssay (NCI):
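96-well plates; 48 h exposure; 5 concentrations. Endpoints by linear interpolation between flanking doses. Not reached: highest tested concentration assigned. Definition used: TGI = concentration required for complete inhibition of growth.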

Experiments:
Assay in all cases: NCI tumour cell line growth inhibition, 48 h
MDA-N = test system: MDA-N
MCF7 breast = test system: MCF7 breast
CCRF-CEM leukemia = test system: CCRF-CEM leukemia
OVCAR-4 ovarian = test system: OVCAR-4 ovarian
MDA-MB-231 breast = test system: MDA-MB-231 breast
HT29 colon = test system: HT29 colon
SN12C renal = test system: SN12C renal
SNB-75 CNS = test system: SNB-75 CNS
HCT-116 colon = test system: HCT-116 colon
SK-MEL-2 melanoma = test system: SK-MEL-2 melanoma
NCI/ADR-RES ovarian = test system: NCI/ADR-RES ovarian
NCI-H23 lung = test system: NCI-H23 lung
OVCAR-3 ovarian = test system: OVCAR-3 ovarian
786-0 renal = test system: 786-0 renal
HOP-92 NSCLC = test system: HOP-92 NSCLC
IGROV1 ovarian = test system: IGROV1 ovarian
MALME-3M melanoma = test system: MALME-3M melanoma
COLO 205 colon = test system: COLO 205 colon
KM12 colon = test system: KM12 colon
T-47D breast = test system: T-47D breast
SF-295 CNS = test system: SF-295 CNS
SW-620 colon = test system: SW-620 colon
U251 CNS = test system: U251 CNS
SF-539 CNS = test system: SF-539 CNS
A498 renal = test system: A498 renal
HL-60(TB) leukemia = test system: HL-60(TB) leukemia
RXF 393 renal = test system: RXF 393 renal
NCI-H460 lung = test system: NCI-H460 lung
OVCAR-8 ovarian = test system: OVCAR-8 ovarian
UACC-257 melanoma = test system: UACC-257 melanoma
LOX IMVI melanoma = test system: LOX IMVI melanoma
PC-3 prostate = test system: PC-3 prostate
K-562 leukemia = test system: K-562 leukemia
UO-31 renal = test system: UO-31 renal
CAKI-1 renal = test system: CAKI-1 renal
ACHN renal = test system: ACHN renal
SK-MEL-5 melanoma = test system: SK-MEL-5 melanoma
RPMI-8226 leukemia = test system: RPMI-8226 leukemia
SNB-19 CNS = test system: SNB-19 CNS
EKVX NSCLC = test system: EKVX NSCLC
HCC-2998 colon = test system: HCC-2998 colon
SK-OV-3 ovarian = test system: SK-OV-3 ovarian
NCI-H522 lung = test system: NCI-H522 lung
OVCAR-5 ovarian = test system: OVCAR-5 ovarian
MDA-MB-435 = test system: MDA-MB-435
M14 melanoma = test system: M14 melanoma
A549 NSCLC = test system: A549 NSCLC
SF-268 CNS = test system: SF-268 CNS
HCT-15 colon = test system: HCT-15 colon
MOLT-4 leukemia = test system: MOLT-4 leukemia
TK-10 renal = test system: TK-10 renal
HS 578T breast = test system: HS 578T breast
SK-MEL-28 melanoma = test system: SK-MEL-28 melanoma
HOP-62 NSCLC = test system: HOP-62 NSCLC
DU-145 prostate = test system: DU-145 prostate

`COC(=O)c1ccc2c(c1)CC1(C2)Cc2cc3c(cc2C1=O)CCC3` (stereo not given) was tested, and the TGI (MDA-N) was 61.1 µM, the TGI (MCF7 breast) was 50.9 µM and the TGI (CCRF-CEM leukemia) was 52.7 µM. The TGI (OVCAR-4 ovarian) was greater than 100 µM, the TGI (MDA-MB-231 breast) was greater than 100 µM and the TGI (HT29 colon) was 34.7 µM. For the same compound, the TGI (SN12C renal) was greater than 100 µM, the TGI (SNB-75 CNS) was 83.6 µM and the TGI (HCT-116 colon) was greater than 100 µM. The TGI (SK-MEL-2 melanoma) was greater than 100 µM, the TGI (NCI/ADR-RES ovarian) was 51.3 µM and the TGI (NCI-H23 lung) was greater than 100 µM. For the same compound, the TGI (OVCAR-3 ovarian) was 87.8 µM, the TGI (786-0 renal) was greater than 100 µM and the TGI (HOP-92 NSCLC) was greater than 100 µM. The TGI (IGROV1 ovarian) was greater than 100 µM, the TGI (MALME-3M melanoma) was 82.8 µM and the TGI (COLO 205 colon) was 38.7 µM. The TGI (KM12 colon) was 23.1 µM, the TGI (T-47D breast) was greater than 100 µM and the TGI (SF-295 CNS) was greater than 100 µM. It also gave a TGI (SW-620 colon) greater than 100 µM, a TGI (U251 CNS) greater than 100 µM and a TGI (SF-539 CNS) greater than 100 µM. It also gave a TGI (A498 renal) greater than 100 µM, a TGI (HL-60(TB) leukemia) of 39.8 µM and a TGI (RXF 393 renal) greater than 100 µM. The TGI (NCI-H460 lung) was greater than 100 µM, the TGI (OVCAR-8 ovarian) was greater than 100 µM and the TGI (UACC-257 melanoma) was 46.7 µM. The TGI (LOX IMVI melanoma) was 94.2 µM, the TGI (PC-3 prostate) was greater than 100 µM and the TGI (K-562 leukemia) was greater than 100 µM. It also gave a TGI (UO-31 renal) greater than 100 µM, a TGI (CAKI-1 renal) of 96.5 µM and a TGI (ACHN renal) greater than 100 µM. For the same compound, the TGI (SK-MEL-5 melanoma) was 21.2 µM, the TGI (RPMI-8226 leukemia) was 38.7 µM and the TGI (SNB-19 CNS) was greater than 100 µM. For the same compound, the TGI (EKVX NSCLC) was greater than 100 µM, the TGI (HCC-2998 colon) was greater than 100 µM and the TGI (SK-OV-3 ovarian) was greater than 100 µM. The TGI (NCI-H522 lung) was greater than 100 µM, the TGI (OVCAR-5 ovarian) was greater than 100 µM and the TGI (MDA-MB-435) was 57.4 µM. It also gave a TGI (M14 melanoma) of 42.2 µM, a TGI (A549 NSCLC) greater than 100 µM and a TGI (SF-268 CNS) greater than 100 µM. The TGI (HCT-15 colon) was greater than 100 µM, the TGI (MOLT-4 leukemia) was 29.2 µM and the TGI (TK-10 renal) was greater than 100 µM. The TGI (HS 578T breast) was greater than 100 µM, the TGI (SK-MEL-28 melanoma) was greater than 100 µM and the TGI (HOP-62 NSCLC) was greater than 100 µM. For the same compound, the TGI (DU-145 prostate) was greater than 100 µM.
